Experimental data taken from patent US10106504B2, “Pyridin-3-yl acetic acid derivatives as inhibitors of human immunodeficiency virus replication” (priority 2015, dated 2018).
Where two headings read alike, the source gives them in different places.

Test system: NL-RLuc virus
Test: Inhibition of HIV replication (NL-RLuc virus, luciferase readout in MT-2 cells)
Assay type: cell-based
Conditions: Human immunodeficiency virus 1, MT2, 120 h
Excerpt: Inhibition of HIV Replication:
A recombinant NL-RLuc proviral clone was constructed in which a section of the nef gene from NL4-3 was replaced with the Renilla Luciferase gene. This virus is fully infectious and can undergo multiple cycles of replication in cell culture. In addition, the luciferous reporter provides a simple and easy method for quantitating the extent of virus growth and consequently, the antiviral activity of test compounds. The plasmid pNLRLuc contains the proviral NL-Rluc DNA cloned into pUC18 at the PvuII site. The NL-RLuc virus was prepared by transfection of 293T cells with the plasmid pNLRLuc. Transfections were performed using the LipofectAMINE PLUS kit from Invitrogen (Carlsbad, Calif.) according to the manufacturer and the virus generated was titered in MT-2 cells. For susceptibility analyses, the titrated virus was used to infect MT-2 cells in the presence of compound, and after 5 days of incubation, cells were processed and quantitated for virus growth by the amount of expressed luciferase. Assay media was RPMI 1640 supplemented with 10% heat inactivated fetal bovine serum (FBS), 100 units/ml penicillin G/100 units/ml streptomycin, 10 mM HEPES buffer pH 7.55 and 2 mM L-glutamine. The results from at least 2 experiments were used to calculate the EC50 values. Luciferase was quantitated using the Dual Luciferase kit from Promega (Madison, Wis.). Susceptibility of viruses to compounds was determined by incubation in the presence of serial dilutions of the compound. The 50% effective concentration (EC50) was calculated by using the exponential form of the median effect equation where (Fa)=1/[1+(ED50/drug conc.)^m] (Johnson V A, Byington R T. Infectivity Assay. In Techniques in HIV Research. ed. Aldovini A, Walker BD. 71-76. New York: Stockton Press. 1990). Activity equal to A refers to a compound having an EC50<100 nM, while B and C denote compounds having an EC50 between 100 nM and 1 uM (B) or >1 uM (C).

SMILES | EC50 (read-out: Activity) [µM] | EC50 (read-out: EC50 μM) [µM]
Cc1nc(C)c([C@H](OC(C)(C)C)C(=O)O)c(-c2cc(F)c3c(c2C)CCCO3)c1-c1cc(F)c2c(c1C)CCCO2 [Example 1, (2S)-2-(4,5-Bis(8-fluoro-5-methylchroman-6-yl)-2,6-dimethylpyridin-3-yl)-2-(tert-butoxy)acetic Acid] | > 1 | 1.74
COc1ccc(COc2ccc(-c3c(C)nc(C)c([C@H](OC(C)(C)C)C(=O)O)c3-c3ccc(Cl)cc3)cc2)cc1 [Example 2, (S)-2-(tert-Butoxy)-2-(4-(4-chlorophenyl)-5-(4-((4-methoxybenzyl)oxy)phenyl)-2,6-dimethylpyridin-3-yl)acetic Acid] | < 0.1 | 0.073
COc1ccc(COc2ccc(-c3c(C)nc(C)c([C@H](OC(C)(C)C)C(=O)O)c3-c3ccc(C)cc3)cc2)cc1 [Example 3, (S)-2-(tert-Butoxy)-2-(5-(4-((4-methoxybenzyl)oxy)phenyl)-2,6-dimethyl-4-(p-tolyl)pyridin-3-yl)acetic Acid] | 0.1 to 1 | 0.196
COc1ccc(COc2ccc(-c3c(C)nc(C)c([C@H](OC(C)(C)C)C(=O)O)c3-c3ccc(OCc4ccc(OC)cc4)cc3)cc2)cc1 [Example 4, (S)-2-(4,5-Bis(4-((4-methoxybenzyl)oxy)phenyl)-2,6-dimethylpyridin-3-yl)-2-(tert-butoxy)acetic Acid] | 0.1 to 1 | 
Cc1ccc(-c2c(-c3ccc(OCc4ccc(F)cc4)cc3)c(C)nc(C)c2[C@H](OC(C)(C)C)C(=O)O)cc1 [Example 5, (S)-2-(tert-Butoxy)-2-(5-(4-((4-fluorobenzyl)oxy)phenyl)-2,6-dimethyl-4-(p-tolyl)pyridin-3-yl)acetic Acid] | 0.1 to 1 | 
Cc1nc(C)c([C@H](OC(C)(C)C)C(=O)O)c(-c2cc(F)c3c(c2C)CCCO3)c1-c1ccc(OCCc2ccc(F)cc2)cc1 [Example 6, (2S)-2-(tert-Butoxy)-2-(4-(8-fluoro-5-methylchroman-6-yl)-5-(4-(4-fluorophenethoxy)phenyl)-2,6-dimethylpyridin-3-yl)acetic Acid] | < 0.1 | 
CCOc1ccc(-c2c(C)nc(C)c([C@H](OC(C)(C)C)C(=O)O)c2-c2cc(F)c3c(c2C)CCCO3)cc1 [Example 7, (2S)-2-(tert-Butoxy)-2-(5-(4-ethoxyphenyl)-4-(8-fluoro-5-methylchroman-6-yl)-2,6-dimethylpyridin-3-yl)acetic Acid] | 0.1 to 1 | 0.545
Cc1nc(C)c([C@H](OC(C)(C)C)C(=O)O)c(-c2ccc(OCCc3ccc(F)cc3)cc2)c1-c1ccc(OCCc2ccc(F)cc2)cc1 [Example 8, (S)-2-(4,5-Bis(4-(4-fluorophenethoxy)phenyl)-2,6-dimethylpyridin-3-yl)-2-(tert-butoxy)acetic Acid] | 0.1 to 1 | 
Cc1nc(C)c([C@H](OC(C)(C)C)C(=O)O)c(-c2ccc3c(c2)CCCO3)c1-c1ccc(OCCc2ccc(F)cc2)cc1 [Example 9, (S)-2-(tert-Butoxy)-2-(4-(chroman-6-yl)-5-(4-(4-fluorophenethoxy)phenyl)-2,6-dimethylpyridin-3-yl)acetic Acid] | < 0.1 | 
Cc1nc(CN(C)C)c(-c2ccc(OCCc3ccc(F)cc3)cc2)c(-c2ccc3c(c2)CCCO3)c1[C@H](OC(C)(C)C)C(=O)O [Example 10, (S)-2-(tert-Butoxy)-2-(4-(chroman-6-yl)-6-((dimethylamino)methyl)-5-(4-(4-fluorophenethoxy)phenyl)-2-methylpyridin-3-yl)acetic Acid] | < 0.1 | 
Cc1nc(CNCC2CCOCC2)c(-c2ccc(OCCc3ccc(F)cc3)cc2)c(-c2ccc3c(c2)CCCO3)c1[C@H](OC(C)(C)C)C(=O)O [Example 11, (S)-2-(tert-Butoxy)-2-(4-(chroman-6-yl)-5-(4-(4-fluorophenethoxy)phenyl)-2-methyl-6-((((tetrahydro-2H-pyran-4-yl)methyl)amino)methyl)pyridin-3-yl)acetic Acid] | < 0.1 | 
COCCNCc1nc(C)c([C@H](OC(C)(C)C)C(=O)O)c(-c2ccc3c(c2)CCCO3)c1-c1ccc(OCCc2ccc(F)cc2)cc1 [Example 12, (S)-2-(tert-Butoxy)-2-(4-(chroman-6-yl)-5-(4-(4-fluorophenethoxy)phenyl)-6-(((2-methoxyethyl)amino)methyl)-2-methylpyridin-3-yl)acetic Acid] | < 0.1 | 0.007
Cc1nc(CN(C)CC2CCOCC2)c(-c2ccc(OCCc3ccc(F)cc3)cc2)c(-c2ccc3c(c2)CCCO3)c1[C@H](OC(C)(C)C)C(=O)O [Example 13, (S)-2-(tert-Butoxy)-2-(4-(chroman-6-yl)-5-(4-(4-fluorophenethoxy)phenyl)-2-methyl-6-((methyl((tetrahydro-2H-pyran-4-yl)methyl)amino)methyl)pyridin-3-yl)acetic Acid] | < 0.1 | 
Cc1nc(CO)c(-c2ccc(OCCc3ccc(F)cc3)cc2)c(-c2ccc3c(c2)CCCO3)c1[C@H](OC(C)(C)C)C(=O)O [Example 14, (S)-2-(tert-Butoxy)-2-(4-(chroman-6-yl)-5-(4-(4-fluorophenethoxy)phenyl)-6-(hydroxymethyl)-2-methylpyridin-3-yl)acetic Acid] | < 0.1 | 
Cc1nc(COC2CCOCC2)c(-c2ccc(OCCc3ccc(F)cc3)cc2)c(-c2ccc3c(c2)CCCO3)c1[C@H](OC(C)(C)C)C(=O)O [Example 15, (S)-2-(tert-Butoxy)-2-(4-(chroman-6-yl)-5-(4-(4-fluorophenethoxy)phenyl)-2-methyl-6-(((tetrahydro-2H-pyran-4-yl)oxy)methyl)pyridin-3-yl)acetic Acid] | < 0.1 | 
Cc1nc(COCC2COC2)c(-c2ccc(OCCc3ccc(F)cc3)cc2)c(-c2ccc3c(c2)CCCO3)c1[C@H](OC(C)(C)C)C(=O)O [Example 16, (S)-2-(tert-Butoxy)-2-(4-(chroman-6-yl)-5-(4-(4-fluorophenethoxy)phenyl)-2-methyl-6-((oxetan-3-ylmethoxy)methyl)pyridin-3-yl)acetic Acid] | < 0.1 | 
CCOCCOCc1nc(C)c([C@H](OC(C)(C)C)C(=O)O)c(-c2ccc3c(c2)CCCO3)c1-c1ccc(OCCc2ccc(F)cc2)cc1 [Example 17, (S)-2-(tert-Butoxy)-2-(4-(chroman-6-yl)-6-((2-ethoxyethoxy)methyl)-5-(4-(4-fluorophenethoxy)phenyl)-2-methylpyridin-3-yl)acetic Acid] | < 0.1 | 
CCOCCOCCOCc1nc(C)c([C@H](OC(C)(C)C)C(=O)O)c(-c2ccc3c(c2)CCCO3)c1-c1ccc(OCCc2ccc(F)cc2)cc1 [Example 18, (S)-2-(tert-Butoxy)-2-(4-(chroman-6-yl)-6-((2-(2-ethoxyethoxy)ethoxy)methyl)-5-(4-(4-fluorophenethoxy)phenyl)-2-methylpyridin-3-yl)acetic Acid] | < 0.1 | 
Cc1nc(C)c([C@H](OC(C)(C)C)C(=O)O)c(-c2ccc3c(c2)CCCO3)c1-c1ccc2c(c1)CCN(C(=O)OCc1ccccc1)C2 [Example 19, (S)-2-(5-(2-((Benzyloxy)carbonyl)-1,2,3,4-tetrahydroisoquinolin-6-yl)-4-(chroman-6-yl)-2,6-dimethylpyridin-3-yl)-2-(tert-butoxy)acetic Acid] | < 0.1 | 0.069
Cc1nc(C)c([C@H](OC(C)(C)C)C(=O)O)c(-c2ccc3c(c2)CCCO3)c1-c1ccc2c(c1)CCN(Cc1ccc(F)cc1)C2 [Example 20, (S)-2-(tert-Butoxy)-2-(4-(chroman-6-yl)-5-(2-(4-fluorobenzyl)-1,2,3,4-tetrahydroisoquinolin-6-yl)-2,6-dimethylpyridin-3-yl)acetic Acid] | < 0.1 | 
Cc1nc(C)c([C@H](OC(C)(C)C)C(=O)O)c(-c2ccc3c(c2)CCCO3)c1-c1ccc2c(c1)CCNC2 [Example 21, (S)-2-(tert-Butoxy)-2-(4-(chroman-6-yl)-2,6-dimethyl-5-(1,2,3,4-tetrahydroisoquinolin-6-yl)pyridin-3-yl)acetic acid] | > 1 | 7.77
Cc1nc(C)c([C@H](OC(C)(C)C)C(=O)O)c(-c2ccc3c(c2)CCCO3)c1-c1ccc2c(c1)CCN(C)C2 [Example 22, (S)-2-(tert-Butoxy)-2-(4-(chroman-6-yl)-2,6-dimethyl-5-(2-methyl-1,2,3,4-tetrahydroisoquinolin-6-yl)pyridin-3-yl)acetic acid] | 0.1 to 1 | 0.628
Cc1nc(C)c([C@H](OC(C)(C)C)C(=O)O)c(-c2ccc3c(c2)CCCO3)c1-c1ccc2c(c1)CCN(Cc1ccccc1F)C2 [Example 23, (S)-2-(tert-Butoxy)-2-(4-(chroman-6-yl)-5-(2-(2-fluorobenzyl)-1,2,3,4-tetrahydroisoquinolin-6-yl)-2,6-dimethylpyridin-3-yl)acetic Acid] | < 0.1 | 
Cc1nc(C)c([C@H](OC(C)(C)C)C(=O)O)c(-c2ccc3c(c2)CCCO3)c1-c1ccc2c(c1)CCN(Cc1cccc(F)c1)C2 [Example 24, (S)-2-(tert-Butoxy)-2-(4-(chroman-6-yl)-5-(2-(3-fluorobenzyl)-1,2,3,4-tetrahydroisoquinolin-6-yl)-2,6-dimethylpyridin-3-yl)acetic Acid] | < 0.1 | 
